{"source": "patent US20150105252A1", "about": "“SUBSTITUTED PYRAZOLES AS HERBICIDES” (E I DU PONT DE NEMOURS AND COMPANY, priority 2013, published 2015)", "test_in_all_cases": "Test C postemergence", "key": {"blackgrass": {"system": "blackgrass", "assay_type": "in vivo, Alopecurus myosuroides", "outline": "(§1)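 Visual rating, 0–100 scale (0 no effect, 100 complete control), vs untreated controls after 13–15 d greenhouse. Pre: seeds in loam/sand, treated at sowing. Post: plants in peat-based mix, 1- to 4-leaf (2–18 cm). Solvent + surfactant formulation, non-phytotoxic.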"}, "ryegrass, Italian": {"system": "ryegrass, Italian", "assay_type": "in vivo, Lolium multiflorum", "outline": "as §1"}, "wheat": {"system": "wheat", "assay_type": "in vivo, Triticum aestivum", "outline": "as §1"}, "foxtail, giant": {"system": "foxtail, giant", "assay_type": "in vivo, Setaria faberii", "outline": "as §1"}, "johnsongrass": {"system": "johnsongrass", "assay_type": "in vivo, Sorghum halepense", "outline": "as §1"}, "lambsquarters": {"system": "lambsquarters", "assay_type": "in vivo, Chenopodium album", "outline": "as §1"}, "morningglory": {"system": "morningglory", "assay_type": "in vivo, Ipomoea coccinea", "outline": "as §1"}, "nutsedge, yellow": {"system": "nutsedge, yellow", "assay_type": "in vivo, Cyperus esculentus", "outline": "as §1"}, "pigweed": {"system": "pigweed", "assay_type": "in vivo, Amaranthus retroflexus", "outline": "as §1"}, "ragweed": {"system": "ragweed", "assay_type": "in vivo, Ambrosia elation", "outline": "as §1"}, "soybean": {"system": "soybean", "assay_type": "in vivo, Glycine max", "outline": "as §1"}, "barnyardgrass": {"system": "barnyardgrass", "assay_type": "in vivo, Echinochloa crus-galli", "outline": "as §1"}, "oilseed rape": {"system": "oilseed rape", "assay_type": "in vivo, Brassica napus", "outline": "as §1"}, "waterhemp": {"system": "waterhemp", "assay_type": "in vivo, Amaranthus rudis", "outline": "as §1"}, "oat, wild": {"system": "oat, wild", "assay_type": "in vivo, Avena fatua", "outline": "as §1"}, "kochia": {"system": "kochia", "assay_type": "in vivo, Kochia scoparia", "outline": "as §1"}, "chickweed": {"system": "chickweed", "assay_type": "in vivo, Stellaria media", "outline": "as §1"}, "[1]": {"conditions": "Postemergence, 31 g ai/ha, visually evaluated after 13 to 15 days"}, "[2]": {"conditions": "postemergence, 62 g ai/ha, scale 0 to 100"}, "[3]": {"conditions": "postemergence, 250 g ai/ha, scale 0 to 100 (0 no effect, 100 complete control)"}, "[4]": {"conditions": "postemergence, 125 g ai/ha, scale 0 to 100, 0 no effect, 100 complete control"}}}
{"smiles": "CCc1cc(C(=O)NC(C)C)nn1Cc1ccnc(C(F)(F)F)c1", "note": "[Compound 103]", "values": [{"measurement": "Plant response rating (scale of 0 to 100 where 0 is no effect and 100 is complete control), Blackgrass", "setting": "blackgrass; [1]", "value": 10}, {"measurement": "Blackgrass plant response rating", "setting": "blackgrass; [2]", "value": 15}, {"measurement": "Plant response rating, Blackgrass", "setting": "blackgrass; [3]", "value": 60}, {"measurement": "Plant response rating, Blackgrass", "setting": "blackgrass; [4]", "value": 40}, {"measurement": "Plant response rating (scale of 0 to 100 where 0 is no effect and 100 is complete control), Ryegrass, Italian", "setting": "ryegrass, Italian; [1]", "value": 5}, {"measurement": "Ryegrass, Italian plant response rating", "setting": "ryegrass, Italian; [2]", "value": 5}, {"measurement": "Plant response rating, Ryegrass, Italian", "setting": "ryegrass, Italian; [3]", "value": 45}, {"measurement": "Plant response rating, Ryegrass, Italian", "setting": "ryegrass, Italian; [4]", "value": 5}, {"measurement": "Plant response rating (scale of 0 to 100 where 0 is no effect and 100 is complete control), Wheat", "setting": "wheat; [1]", "value": 0}, {"measurement": "Wheat plant response rating", "setting": "wheat; [2]", "value": 5}, {"measurement": "Plant response rating, Wheat", "setting": "wheat; [3]", "value": 15}, {"measurement": "Plant response rating, Wheat", "setting": "wheat; [4]", "value": 5}, {"measurement": "Plant response rating (scale of 0 to 100 where 0 is no effect and 100 is complete control), Foxtail, Giant", "setting": "foxtail, giant; [1]", "value": 40}, {"measurement": "Foxtail, Giant plant response rating", "setting": "foxtail, giant; [2]", "value": 40}, {"measurement": "Plant response rating, Foxtail, Giant", "setting": "foxtail, giant; [3]", "value": 90}, {"measurement": "Plant response rating, Foxtail, Giant", "setting": "foxtail, giant; [4]", "value": 60}, {"measurement": "Plant response rating (scale of 0 to 100 where 0 is no effect and 100 is complete control), Johnsongrass", "setting": "johnsongrass; [1]", "value": 5}, {"measurement": "Johnsongrass plant response rating", "setting": "johnsongrass; [2]", "value": 10}, {"measurement": "Plant response rating, Johnsongrass", "setting": "johnsongrass; [3]", "value": 95}, {"measurement": "Plant response rating, Johnsongrass", "setting": "johnsongrass; [4]", "value": 20}, {"measurement": "Plant response rating (scale of 0 to 100 where 0 is no effect and 100 is complete control), Lambsquarters", "setting": "lambsquarters; [1]", "value": 65}, {"measurement": "Lambsquarters plant response rating", "setting": "lambsquarters; [2]", "value": 70}, {"measurement": "Plant response rating, Lambsquarters", "setting": "lambsquarters; [3]", "value": 90}, {"measurement": "Plant response rating, Lambsquarters", "setting": "lambsquarters; [4]", "value": 75}, {"measurement": "Plant response rating (scale of 0 to 100 where 0 is no effect and 100 is complete control), Morningglory", "setting": "morningglory; [1]", "value": 75}, {"measurement": "Morningglory plant response rating", "setting": "morningglory; [2]", "value": 75}, {"measurement": "Plant response rating, Morningglory", "setting": "morningglory; [3]", "value": 100}, {"measurement": "Plant response rating, Morningglory", "setting": "morningglory; [4]", "value": 85}, {"measurement": "Plant response rating (scale of 0 to 100 where 0 is no effect and 100 is complete control), Nutsedge, Yellow", "setting": "nutsedge, yellow; [1]", "value": 10}, {"measurement": "Nutsedge, Yellow plant response rating", "setting": "nutsedge, yellow; [2]", "value": 10}, {"measurement": "Plant response rating, Nutsedge, Yellow", "setting": "nutsedge, yellow; [3]", "value": 20}, {"measurement": "Plant response rating, Nutsedge, Yellow", "setting": "nutsedge, yellow; [4]", "value": 10}, {"measurement": "Plant response rating (scale of 0 to 100 where 0 is no effect and 100 is complete control), Pigweed", "setting": "pigweed; [1]", "value": 50}, {"measurement": "Pigweed plant response rating", "setting": "pigweed; [2]", "value": 50}, {"measurement": "Plant response rating, Pigweed", "setting": "pigweed; [3]", "value": 80}, {"measurement": "Plant response rating, Pigweed", "setting": "pigweed; [4]", "value": 65}, {"measurement": "Plant response rating (scale of 0 to 100 where 0 is no effect and 100 is complete control), Ragweed", "setting": "ragweed; [1]", "value": 35}, {"measurement": "Ragweed plant response rating", "setting": "ragweed; [2]", "value": 70}, {"measurement": "Plant response rating, Ragweed", "setting": "ragweed; [3]", "value": 90}, {"measurement": "Plant response rating, Ragweed", "setting": "ragweed; [4]", "value": 80}, {"measurement": "Plant response rating (scale of 0 to 100 where 0 is no effect and 100 is complete control), Soybean", "setting": "soybean; [1]", "value": 45}, {"measurement": "Soybean plant response rating", "setting": "soybean; [2]", "value": 70}, {"measurement": "Plant response rating, Soybean", "setting": "soybean; [3]", "value": 98}, {"measurement": "Plant response rating, Soybean", "setting": "soybean; [4]", "value": 95}, {"measurement": "Plant response rating (scale of 0 to 100 where 0 is no effect and 100 is complete control), Barnyardgrass", "setting": "barnyardgrass; [1]", "value": 10}, {"measurement": "Barnyardgrass plant response rating", "setting": "barnyardgrass; [2]", "value": 15}, {"measurement": "Plant response rating, Barnyardgrass", "setting": "barnyardgrass; [3]", "value": 95}, {"measurement": "Plant response rating, Barnyardgrass", "setting": "barnyardgrass; [4]", "value": 15}, {"measurement": "Plant response rating (scale of 0 to 100 where 0 is no effect and 100 is complete control), Oilseed Rape", "setting": "oilseed rape; [1]", "value": 5}, {"measurement": "Oilseed Rape plant response rating", "setting": "oilseed rape; [2]", "value": 50}, {"measurement": "Plant response rating, Oilseed Rape", "setting": "oilseed rape; [3]", "value": 70}, {"measurement": "Plant response rating, Oilseed Rape", "setting": "oilseed rape; [4]", "value": 50}, {"measurement": "Plant response rating (scale of 0 to 100 where 0 is no effect and 100 is complete control), Waterhemp", "setting": "waterhemp; [1]", "value": 55}, {"measurement": "Waterhemp plant response rating", "setting": "waterhemp; [2]", "value": 65}, {"measurement": "Plant response rating, Waterhemp", "setting": "waterhemp; [3]", "value": 90}, {"measurement": "Plant response rating, Waterhemp", "setting": "waterhemp; [4]", "value": 65}, {"measurement": "Plant response rating (scale of 0 to 100 where 0 is no effect and 100 is complete control), Oat, Wild", "setting": "oat, wild; [1]", "value": 5}, {"measurement": "Oat, Wild plant response rating", "setting": "oat, wild; [2]", "value": 5}, {"measurement": "Plant response rating, Oat, Wild", "setting": "oat, wild; [3]", "value": 50}, {"measurement": "Plant response rating, Oat, Wild", "setting": "oat, wild; [4]", "value": 50}, {"measurement": "Plant response rating (scale of 0 to 100 where 0 is no effect and 100 is complete control), Kochia", "setting": "kochia; [1]", "value": 85}, {"measurement": "Kochia plant response rating", "setting": "kochia; [2]", "value": 85}, {"measurement": "Plant response rating, Kochia", "setting": "kochia; [3]", "value": 90}, {"measurement": "Plant response rating, Kochia", "setting": "kochia; [4]", "value": 85}, {"measurement": "Plant response rating (scale of 0 to 100 where 0 is no effect and 100 is complete control), Chickweed", "setting": "chickweed; [1]", "value": 50}, {"measurement": "Chickweed plant response rating", "setting": "chickweed; [2]", "value": 60}, {"measurement": "Plant response rating, Chickweed", "setting": "chickweed; [3]", "value": 85}, {"measurement": "Plant response rating, Chickweed", "setting": "chickweed; [4]", "value": 75}]}
